Laboratory results reported in patent publication US9700633B2, “Conjugates of water soluble polymer-amino acid oligopeptide-drug, preparation method and use thereof” (JENKEM TECHNOLOGY CO. LTD., TIANJIN BRANCH, priority 2013, dated 2017).
Several values for one entry are separate records, joined by “and”; a condition that tells them apart may be missing. Equal values may be shown once. Where a name gives a salt, the structure may show the parent alone. Read-outs that look alike come from different tables or passages of the source. Marks after values point to notes of the source that are not given here.

How the values were obtained:
[1] = tested on: human liver cancer plc/prf/5; conditions: 10 mg/kg (based on rapamycin), i.v., Q2W × 2W
[2] = tested on: PC-3 human prostate cancer; assay: Subcutaneous tumor model of PC-3 human prostate cancer; type: in vivo, Balb/c nude mouse; conditions: 10 mg/kg
Protocol: PC-3 cells were subcutaneously inoculated at the right side on the back of Balb/c nude mouse so as to establish a subcutaneous xenograft animal model of human prostate cancer. When the average tumor volume reached 160 mm^3, the experiment mice were divided to different groups, with 8 mice for each group, and the drugs were administrated by intravenous injections twice a week. The therapeutic effect was evaluated based on relative tumor proliferation ratio (T/C %).
PC-3 cell line was cultured in vitro in Ham's F12K medium with supplement of 10% fetal calf serum and L-glutamine (2 mM) at 37° C. in an atmosphere with 5% CO2 for the tumor cells culture. The tumor cells were routinely passaged twice a week. Tumor cells in exponential growth phase were collected, then were suspended in a mixture of PBS: matrigel with equal volume ratio and were placed on ice for tumor inoculation.
(§1) 5×10^6 PC-3 cells were subcutaneously inoculated at the right side on the back of experiment mice. The mice were monitored at regular intervals for the tumor growth. When tumor grew to average 160 mm^3, the mice were divided to groups randomly according to the tumor volume and the mouse body weight, and were administrated.
(§2) All of the operations relevant to operation, nursing and treatment in this investigation were conducted according to guidelines approved by Association for Assessment and Accreditation of Laboratory Animal Care (AAALAC). After the incoluation, the incidence of disease and death of animals were observed every day. In the process of daily observation, the effects of tumor growth on normal behavior of animals (such as exercise, feeding, drinking, body weight change, eyes, hair) as well as any other abnormality were attentively monitored. Death and clinical symptom were recorded for animals in each group.
The calculation formula for tumor volume is as follows: tumor volume (mm^3)=0.5×(long diameter of the tumor×short diameter of the tumor^2). RTV and T/C ratios were calculated according to the tumor volumes of the treatment groups and the control group. RTV refers to relative tumor volume. T/C ratio refers to the percentage value of the relative tumor volumes of the treatment groups and the control group at a time point after the treatment, which reflects the anti-tumor effects of different treatment groups. At the end of the experiment, the pictures of the tumors were recorded according to the following two methods: 1. after euthanatized by CO2, the animals in each group were placed with tumor-bearing side up, and the pictures were taken and recorded respectively for each group; 2. after the tumor was removed, the tumor weight was weighed first. T/C (percentage value of the tumor weight between the treatment group and the control group) was calculated, and then the tumors from each group were placed in order. The pictures of the tumors were taken and recorded.
All the experiment results were expressed as average tumor volume±SE (standard error). For statistical analysis, one-way analysis of variance (one-way ANOVA) and LSD multiple comparisons method were used for the relative tumor volume data, comparing the significant difference of the relative tumor volumes between the groups. p<0.05 indicates the significant difference.

[3] = tested on: K562 human chronic myelogenous leukemia; assay: Subcutaneous tumor model of K562 human chronic myelogenous leukemia; type: in vivo, NOD/SCID mice; conditions: 5 mg/kg; for Relative tumor volume (x ± SE) / Tumor volume (x ± SE): intravenous twice a week
Protocol: K562 cells were subcutaneously inoculated at the back of NOD/SCID mice right side so as to establish a subcutaneous xenograft animal model of human chronic myelogenous leukemia. When the average tumor volume reached 130 mm^3, the experiment mice were divided to different groups, with 8 mice for each group, and the drugs were administrated by intravenous injections twice a week. The effect was evaluated based on relative tumor proliferation ratio (T/C %).
Tumor cells were routinely passaged twice a week. Tumor cells in exponential growth phase were collected, then suspended in a mixture of PBS: matrigel with equal volume ratio and placed on ice for tumor inoculation.
as §1, with “K562” for “PC-3”, “the” for “the right side on the”, “mice right side.” for “mice.”, “130” for “160”, “to” for “to the”, “and” for “and the”
as §2
The calculation formula for tumor volume is as follows: tumor volume (mm^3)=0.5×(long diameter of the tumor×short diameter of the tumor^2). RTV and T/C ratios were calculated according to the tumor volumes of the treatment groups and the control group. RTV refers to relative tumor volume. T/C ratio refers to the percentage value of the average tumor volumes between the treatment groups and the control group at a time point after the treatment, which reflects the anti-tumor effects of different treatment groups.
All the experiment results were expressed as the average tumor volume±SE (standard error). For statistical analysis, since the variances of relative tumor volume data were different, one-way analysis of variance (one-way ANOVA) and Dunnett T3 method for multiple comparisons were used to compare significant difference of relative tumor volumes between the groups. p<0.05 indicated the significant difference.

[4] = tested on: human colon cancer HT-29; assay: Xenografted tumor of human colon cancer HT-29 in nude mice; type: in vivo, BALB/cA nude mice; conditions: iv
[5] = tested on: human colon cancer HCT-116; assay: Xenografted tumor of human colon cancer HCT-116 in nude mice; type: in vivo, BALB/cA nude mice; conditions: iv
Protocol: The diameter of subcutaneously xenografted tumor of the nude mice was measured by the caliper.

[6] = tested on: human ovarian cancer SKOV-3; assay: Xenografted tumor of human ovarian cancer SKOV-3 in nude mice; type: in vivo, BALB/cA nude mice; conditions: iv; for number of animals with vanished tumor: d28, 6 mice per group
[7] = tested on: human lung cancer A549; assay: Xenografted tumor of human lung cancer A549 in nude mice; type: in vivo, BALB/cA nude mice; conditions: iv
[8] = tested on: human colon cancer SW-620; assay: Xenografted tumor of human colon cancer SW-620 in nude mice; conditions: 45 mg/kg, qw × 3w, iv
[9] = In vitro degradation assay in 0.01 M PBS buffer solution; type: physicochemical; conditions: at 240 min
Protocol: In order to determine the degradation of the compounds in PBS buffer solution, the compounds DSR1˜6 were dissolved in 0.01 M PBS buffer solution, and were sampled every 30 min.

[10] = 22nd day after grouping, compared with the solvent control group
[11] = intravenous twice a week, 22nd day after grouping
[12] = intravenous twice a week, 25th day after grouping
[13] = 14th day after the grouping, compared with the solvent control group

## conjugate of Y shape PEG dipeptide of glutamic acid and glycine (number-average molecular weight of 40,000)-rapamycin [LPR-3]
[1]
  Delayed days of tumor growth (to 1000 mm^3): >7 days
[1]; compared with the solvent group, day 38 after the inoculation
  Tumor proliferation rates T/C: 47%
[1]; day 24 after the inoculation (grouping)
  Tumor volume (average ± standard error): 358 ± 62 mm^3
[1]; day 27 after the inoculation
  Tumor volume (average ± standard error): 455 ± 85 mm^3
[1]; day 31 after the inoculation
  Tumor volume (average ± standard error): 569 ± 100 mm^3
[1]; day 34 after the inoculation
  Tumor volume (average ± standard error): 754 ± 151 mm^3
[1]; day 38 after the inoculation
  Tumor volume (average ± standard error): 848 ± 178 mm^3

## Cc1nc(Nc2ncc(C(=O)Nc3c(C)cccc3Cl)s2)cc(N2CCN(CCO)CC2)n1 [dasatinib]
[2]; [10]
  T/C (relative tumor proliferation ratio): 73%
[2]; [11]
  Relative tumor volume (x ± SE): 1148.9 ± 112.7
[2]; [12]
  Relative tumor volume (x ± SE): 1235.3 ± 119.6
[3]; [13]
  T/C (relative tumor proliferation ratio): 12.4%
[3]; 14th day after the grouping
  Relative tumor volume (x ± SE): 226.9 ± 30.0
  Tumor volume (x ± SE): 311 mm^3 and 311 ± 55 mm^3
[3]; 21st day after grouping
  Relative tumor volume (x ± SE): 289.1 ± 46.9
  Tumor volume (x ± SE): 391 mm^3 and 391 ± 79 mm^3

## CCc1c2c(nc3ccc(OC(=O)N4CCC(N5CCCCC5)CC4)cc13)-c1cc3c(c(=O)n1C2)COC(=O)[C@]3(O)CC [CPT-11, irinotecan hydrochloride]
[4]; 15 mg/kg, q3w × 3w
  Body weight, Beginning: 18.2 g
  Body weight, End: 16.0 g
  RTV (mean ± SD): 3.79 ± 1.21*^,
  T/C: 27.27%
  TV (mean ± SD) d0: 121 ± 14 mm^3
[4]; 45 mg/kg, qw × 3w
  Body weight, Beginning: 18.6 g
  Body weight, End: 16.2 g
  RTV (mean ± SD): 8.69 ± 3.43
  T/C: 62.52%
  TV (mean ± SD) d0: 116 ± 13 mm^3
[5]; 15 mg/kg, q3w × 3w
  Body weight, End: 16.6 g
  RTV (mean ± SD): 2.57 ± 0.66
  T/C: 39.84%
  TV (mean ± SD) d0: 129 ± 26 mm^3
  TV (mean ± SD) d28: 322 ± 37 mm^3
[5]; 45 mg/kg, qw × 3w
  Body weight, End: 15.1 g
  RTV (mean ± SD): 4.10 ± 0.73
  T/C: 63.56%
  TV (mean ± SD) d0: 126 ± 25 mm^3
  TV (mean ± SD) d28: 512 ± 99 mm^3
[6]; 15 mg/kg, q3w × 3w
  Body weight, Beginning: 18.9 g
  Body weight, End: 18.0 g
  RTV (mean ± SD): 7.39 ± 5.22**^,
  T/C: 55.69%
  TV (mean ± SD) d0: 137 ± 33 mm^3
  TV (mean ± SD) d28: 924 ± 443 mm^3
  number of animals with vanished tumor: 0
[6]; 45 mg/kg, qw × 3w
  Body weight, Beginning: 19.7 g
  RTV (mean ± SD): 12.80 ± 3.91
  T/C: 96.46%
  TV (mean ± SD) d0: 136 ± 44 mm^3
  TV (mean ± SD) d28: 1753 ± 878 mm^3
  number of animals with vanished tumor: 0
[7]; 15 mg/kg, q3w × 3w
  Body weight, Beginning: 18.1 g
  RTV (mean ± SD): 7.67 ± 2.88**^,
  T/C: 53.26%
  TV (mean ± SD) d0: 112 ± 21 mm^3
  TV (mean ± SD) d28: 831 ± 305 mm^3
[7]; 45 mg/kg, qw × 3w
  RTV (mean ± SD): 9.87 ± 4.87
  T/C: 68.54%
  TV (mean ± SD) d0: 110 ± 15 mm^3

## conjugate of methoxy PEG dipeptide of glutamic acid and glycine (number-average molecular weight of 20,000)-irinotecan [YNR-1]
[4]; 45 mg/kg, qw × 3w
  RTV (mean ± SD): 5.71 ± 1.21
  T/C: 41.08%
  TV (mean ± SD) d0: 115 ± 25 mm^3
[4]; 45 mg/kg, qw × 3w, d28
  TV (mean ± SD) d28: 642 ± 105 mm^3
[8]
  RTV (mean ± SD): 0.003 ± 0.002**^,#
  T/C: 0.02%
[8]; d0
  TV (mean ± SD) d0: 130 ± 43 mm^3
[8]; d28
  TV (mean ± SD) d28: 0.37 ± 0.29 mm^3
[8]; d28, 6 mice per group
  number of animals with vanished tumor: 2
[5]; 45 mg/kg, qw × 3w
  RTV (mean ± SD): 1.78 ± 0.23**^,##
  T/C: 27.60%
  TV (mean ± SD) d0: 132 ± 30 mm^3
  TV (mean ± SD) d28: 234 ± 54 mm^3
[6]; 45 mg/kg, qw × 3w
  RTV (mean ± SD): 0.07 ± 0.01*^,#
  T/C: 0.53%
  TV (mean ± SD) d0: 135 ± 35 mm^3
  TV (mean ± SD) d28: 1.27 ± 1.98 mm^3
  number of animals with vanished tumor: 4
[7]; 45 mg/kg, qw × 3w
  RTV (mean ± SD): 2.97 ± 1.04*^,#
  T/C: 20.62%
  TV (mean ± SD) d0: 105 ± 21 mm^3
  TV (mean ± SD) d28: 320 ± 154 mm^3

## conjugate of methoxy PEG glutamic acid dipeptide valine (20K)-dasatinib [DSR-4]
[2]; [10]
  T/C (relative tumor proliferation ratio): 47%
[2]; 25th day after grouping, compared with the dasatinib group
  T/C (relative tumor proliferation ratio): 61%
[2]; [11]
  Relative tumor volume (x ± SE): 745.9 ± 54.4
  Tumor volume (x ± SE): 1187 mm^3 and 1187 ± 67 mm^3
[2]; [12]
  Relative tumor volume (x ± SE): 751.9 ± 78.9
[9]
  degradation: 20%
[3]; [13]
  T/C (relative tumor proliferation ratio): 1.6%
[3]; 21st day after grouping, compared with the dasatinib group
  T/C (relative tumor proliferation ratio): 45%
[3]; 14th day after the grouping
  Relative tumor volume (x ± SE): 29.1 ± 4.8
  Tumor volume (x ± SE): 39.2 mm^3 and 39.2 ± 6 mm^3
[3]; 21st day after grouping
  Relative tumor volume (x ± SE): 130 ± 28
  Tumor volume (x ± SE): 176 mm^3 and 176 ± 59 mm^3
